Square brackets hold non-standard residues; d marks the D form. Peptide text beside a SMILES is read from it. 2Nal = N[C@@H](Cc1ccc2ccccc2c1)C(=O)O; Cha = N[C@@H](CC1CCCCC1)C(=O)O; Aoc(2) = CCCCCC[C@H](N)C(=O)O; hSer = N[C@@H](CCO)C(=O)O; Nle = CCCC[C@H](N)C(=O)O; Orn = NCCC[C@H](N)C(=O)O; Dab = NCC[C@H](N)C(=O)O; Nva = CCC[C@H](N)C(=O)O; Dap = NC[C@H](N)C(=O)O
What was measured:
Escherichia coli = test: Antimicrobial activity against Escherichia coli ATCC 25922 assessed as reduction in microbial growth measured after 24 hrs by CLSI based broth microdilution method; type: functional
Erythrocyte = test: Hemolytic activity in human erythrocytes incubated for 1 hr by ELISA reader analysis; type: toxicity, cell-based

| Compound | MIC (Escherichia coli) | HC10 (Erythrocyte) |
| --- | --- | --- |
| CC(C)C[C@H](NC(=O)[C@H](C)NC(=O)CN)C(=O)N[C@@H](CCCCN)C(=O)N[C@@H](CCCNC(=N)N)C(=O)N[C@@H](Cc1ccc2ccccc2c1)C(=O)N[C@@H](CCCCN)C(=O)N[C@H](C(=O)N[C@@H](CC(C)C)C(=O)N[C@@H](C)C(N)=O)[C@@H](C)O (H-GALKR[2Nal]KTLA-NH2) | > 200 µM | > 500 µM |
| CC[C@H](C)[C@H](NC(=O)[C@H](CCCNC(=N)N)NC(=O)[C@@H](NC(=O)[C@H](CC(C)C)NC(=O)[C@H](CC(C)C)NC(=O)CN)[C@@H](C)O)C(=O)N[C@@H](CCCCN)C(=O)N[C@H](C(=O)N[C@@H](CC(C)C)C(=O)N[C@@H](CC(C)C)C(N)=O)[C@@H](C)O (H-GLLTRIKTLL-NH2) | 200 µM | > 500 µM |
| CC[C@H](C)[C@H](NC(=O)[C@H](CCCNC(=N)N)NC(=O)[C@H](CCN)NC(=O)[C@H](CC(C)C)NC(=O)[C@H](CC(C)C)NC(=O)CN)C(=O)N[C@@H](CCCCN)C(=O)N[C@@H](CCN)C(=O)N[C@@H](CC(C)C)C(=O)N[C@@H](CC(C)C)C(N)=O (H-GLL[Dab]RIK[Dab]LL-NH2) | > 200 µM | > 500 µM |
| CC[C@H](C)[C@H](NC(=O)[C@H](CCCNC(=N)N)NC(=O)[C@H](CCO)NC(=O)[C@H](CC(C)C)NC(=O)[C@H](CC(C)C)NC(=O)CN)C(=O)N[C@@H](CCCCN)C(=O)N[C@H](C(=O)N[C@@H](CC(C)C)C(=O)N[C@@H](CC(C)C)C(N)=O)[C@@H](C)O (H-GLL[hSer]RIKTLL-NH2) | 150 µM | > 500 µM |
| CC[C@H](C)[C@H](NC(=O)[C@H](CCCNC(=N)N)NC(=O)[C@H](CCCCN)NC(=O)[C@H](CCSC)NC(=O)[C@H](CC(C)C)NC(=O)CN)C(=O)N[C@@H](CCCCN)C(=O)N[C@H](C(=O)N[C@@H](CCSC)C(=O)N[C@@H](CC(C)C)C(N)=O)[C@@H](C)O (H-GLMKRIKTML-NH2) | > 200 µM | > 500 µM |
| CCC[C@H](NC(=O)[C@H](CC(C)C)NC(=O)CN)C(=O)N[C@@H](CCCCN)C(=O)N[C@@H](CCCNC(=N)N)C(=O)N[C@@H](Cc1ccc2ccccc2c1)C(=O)N[C@@H](CCCCN)C(=O)N[C@H](C(=O)N[C@@H](CCC)C(=O)N[C@@H](CC(C)C)C(N)=O)[C@@H](C)O (H-GL[Nva]KR[2Nal]KT[Nva]L-NH2) | 100 µM | > 500 µM |
| CC[C@H](C)[C@H](NC(=O)[C@H](CCCNC(=N)N)NC(=O)[C@H](CCCCN)NC(=O)[C@H](CC(C)C)NC(=O)[C@H](CCSC)NC(=O)CN)C(=O)N[C@@H](CCCCN)C(=O)N[C@H](C(=O)N[C@@H](CC(C)C)C(=O)N[C@@H](CC(C)C)C(N)=O)[C@@H](C)O (H-GMLKRIKTLL-NH2) | 200 µM | 400 µM |
| CC[C@H](C)[C@H](NC(=O)[C@H](CCCNC(=N)N)NC(=O)[C@H](CCCCN)NC(=O)[C@H](CC(C)C)NC(=O)[C@H](CCSC)NC(=O)CN)C(=O)N[C@@H](CCCCN)C(=O)N[C@H](C(=O)N[C@@H](CC(C)C)C(=O)N[C@@H](CCSC)C(N)=O)[C@@H](C)O (H-GMLKRIKTLM-NH2) | > 200 µM | 500 µM |
| CC[C@H](C)[C@H](NC(=O)[C@H](CCCNC(=N)N)NC(=O)[C@H](CCCCN)NC(=O)[C@H](CCSC)NC(=O)[C@H](CCSC)NC(=O)CN)C(=O)N[C@@H](CCCCN)C(=O)N[C@H](C(=O)N[C@@H](CCSC)C(=O)N[C@@H](CCSC)C(N)=O)[C@@H](C)O (H-GMMKRIKTMM-NH2) | > 200 µM | > 500 µM |
| CC[C@H](C)[C@H](NC(=O)[C@H](CCCNC(=N)N)NC(=O)[C@H](CCCCN)NC(=O)[C@H](CC(C)C)NC(=O)[C@H](COC)NC(=O)CN)C(=O)N[C@@H](CCCCN)C(=O)N[C@H](C(=O)N[C@@H](CC(C)C)C(=O)N[C@@H](CC(C)C)C(N)=O)[C@@H](C)O (H-GS(Me)LKRIKTLL-NH2) | > 200 µM | > 500 µM |
| CC[C@H](C)[C@H](NC(=O)[C@H](CCCNC(=N)N)NC(=O)[C@H](CCCCN)NC(=O)[C@H](CC(C)C)NC(=O)[C@H](COC)NC(=O)CN)C(=O)N[C@@H](CCCCN)C(=O)N[C@H](C(=O)N[C@@H](CC(C)C)C(=O)N[C@@H](COC)C(N)=O)[C@@H](C)O (H-GS(Me)LKRIKTLS(Me)-NH2) | > 200 µM | > 500 µM |
| CC[C@H](C)[C@H](NC(=O)[C@H](CCCNC(=N)N)NC(=O)[C@H](CCCCN)NC(=O)[C@H](CC(C)C)NC(=O)[C@@H](NC(=O)CN)C(C)C)C(=O)N[C@@H](CCCCN)C(=O)N[C@H](C(=O)N[C@@H](CC(C)C)C(=O)N[C@H](C(N)=O)C(C)C)[C@@H](C)O (H-GVLKRIKTLV-NH2) | > 200 µM | > 500 µM |
| CC[C@H](C)[C@H](NC(=O)[C@H](CCCNC(=N)N)NC(=O)[C@H](CCCCN)NC(=O)[C@@H](NC(=O)[C@@H](NC(=O)CN)C(C)C)C(C)C)C(=O)N[C@@H](CCCCN)C(=O)N[C@H](C(=O)N[C@H](C(=O)N[C@H](C(N)=O)C(C)C)C(C)C)[C@@H](C)O (H-GVVKRIKTVV-NH2) | > 200 µM | > 500 µM |
| CCCCCC[C@H](NC(=O)[C@H](CCCCCC)NC(=O)[C@@H](NC(=O)[C@H](CCCCN)NC(=O)[C@@H](NC(=O)[C@H](CCCNC(=N)N)NC(=O)[C@H](CCCCN)NC(=O)[C@H](CCCCCC)NC(=O)[C@H](CCCCCC)NC(=O)CN)[C@@H](C)CC)[C@@H](C)O)C(N)=O (H-G[Aoc(2)][Aoc(2)]KRIKT[Aoc(2)][Aoc(2)]-NH2) |  | 20 µM |
| CCCC[C@H](NC(=O)[C@H](CC(C)C)NC(=O)[C@@H](NC(=O)[C@H](CCCCN)NC(=O)[C@@H](NC(=O)[C@H](CCCNC(=N)N)NC(=O)[C@H](CCCCN)NC(=O)[C@H](CC(C)C)NC(=O)[C@H](CCCC)NC(=O)CN)[C@@H](C)CC)[C@@H](C)O)C(N)=O (H-G[Nle]LKRIKTL[Nle]-NH2) | 100 µM | > 500 µM |
| CCCC[C@H](NC(=O)[C@H](CCCC)NC(=O)[C@@H](NC(=O)[C@H](CCCCN)NC(=O)[C@@H](NC(=O)[C@H](CCCNC(=N)N)NC(=O)[C@H](CCCCN)NC(=O)[C@H](CCCC)NC(=O)[C@H](CCCC)NC(=O)CN)[C@@H](C)CC)[C@@H](C)O)C(N)=O (H-G[Nle][Nle]KRIKT[Nle][Nle]-NH2) | 100 µM | > 500 µM |
| CCC[C@H](NC(=O)[C@H](CC(C)C)NC(=O)[C@@H](NC(=O)[C@H](CCCCN)NC(=O)[C@@H](NC(=O)[C@H](CCCNC(=N)N)NC(=O)[C@H](CCCCN)NC(=O)[C@H](CC(C)C)NC(=O)[C@H](CCC)NC(=O)CN)[C@@H](C)CC)[C@@H](C)O)C(N)=O (H-G[Nva]LKRIKTL[Nva]-NH2) | > 200 µM | > 500 µM |

Now from value to compound, other results behind:

| MIC (Escherichia coli) | Compound | HC10 (Erythrocyte) |
| --- | --- | --- |
| 50 µM | CC[C@H](C)[C@H](NC(=O)[C@H](CCCNC(=N)N)NC(=O)[C@H](CCCCN)NC(=O)[C@H](CC(C)C)NC(=O)[C@H](C)NC(=O)CN)C(=O)N[C@@H](CCCCN)C(=O)N[C@H](C(=O)N[C@@H](CC(C)C)C(=O)N[C@@H](C)C(N)=O)[C@@H](C)O (H-GALKRIKTLA-NH2) | > 500 µM |
| 100 µM | CC[C@H](C)[C@H](NC(=O)[C@H](CCCNC(=N)N)NC(=O)[C@H](CCCCN)NC(=O)[C@H](CC(C)C)NC(=O)[C@H](CC(C)C)NC(=O)CN)C(=O)N[C@@H](CCCCN)C(=O)N[C@@H](CO)C(=O)N[C@@H](CC(C)C)C(=O)N[C@@H](CC(C)C)C(N)=O (H-GLLKRIKSLL-NH2) | > 500 µM |
| 100 µM | CC[C@H](C)[C@H](NC(=O)[C@H](CCCNC(=N)N)NC(=O)[C@H](CO)NC(=O)[C@H](CC(C)C)NC(=O)[C@H](CC(C)C)NC(=O)CN)C(=O)N[C@@H](CCCCN)C(=O)N[C@H](C(=O)N[C@@H](CC(C)C)C(=O)N[C@@H](CC(C)C)C(N)=O)[C@@H](C)O (H-GLLSRIKTLL-NH2) | > 500 µM |
| 75 µM | CC[C@H](C)[C@H](NC(=O)[C@H](CCCNC(=N)N)NC(=O)[C@H](CCN)NC(=O)[C@H](CC(C)C)NC(=O)[C@H](CC(C)C)NC(=O)CN)C(=O)N[C@@H](CCCCN)C(=O)N[C@H](C(=O)N[C@@H](CC(C)C)C(=O)N[C@@H](CC(C)C)C(N)=O)[C@@H](C)O (H-GLL[Dab]RIKTLL-NH2) | > 500 µM |
| 100 µM | CC[C@H](C)[C@H](NC(=O)[C@H](CCCNC(=N)N)NC(=O)[C@H](CN)NC(=O)[C@H](CC(C)C)NC(=O)[C@H](CC(C)C)NC(=O)CN)C(=O)N[C@@H](CCCCN)C(=O)N[C@H](C(=O)N[C@@H](CC(C)C)C(=O)N[C@@H](CC(C)C)C(N)=O)[C@@H](C)O (H-GLL[Dap]RIKTLL-NH2) | > 500 µM |
| 100 µM | CC[C@H](C)[C@H](NC(=O)[C@H](CCCNC(=N)N)NC(=O)[C@H](CCCN)NC(=O)[C@H](CC(C)C)NC(=O)[C@H](CC(C)C)NC(=O)CN)C(=O)N[C@@H](CCCCN)C(=O)N[C@H](C(=O)N[C@@H](CC(C)C)C(=O)N[C@@H](CC(C)C)C(N)=O)[C@@H](C)O (H-GLL[Orn]RIKTLL-NH2) | > 500 µM |
| 12.5 µM | CC[C@H](C)[C@H](NC(=O)[C@H](CCCNC(=N)N)NC(=O)[C@H](CCCCN)NC(=O)[C@H](COC)NC(=O)[C@H](COC)NC(=O)CN)C(=O)N[C@@H](CCCCN)C(=O)N[C@H](C(=O)N[C@@H](COC)C(=O)N[C@@H](COC)C(N)=O)[C@@H](C)O (H-GS(Me)S(Me)KRIKTS(Me)S(Me)-NH2) | > 500 µM |
| 6.25 µM | CC[C@H](C)[C@H](NC(=O)[C@H](CCCNC(=N)N)NC(=O)[C@H](CCCCN)NC(=O)[C@H](Cc1ccc2ccccc2c1)NC(=O)CN)C(=O)N[C@@H](CCCCN)C(=O)N[C@H](C(=O)N[C@@H](CC(C)C)C(=O)N[C@@H](CC(C)C)C(N)=O)[C@@H](C)O (H-G[2Nal]KRIKTLL-NH2) | 300 µM |
| 6.25 µM | CCCCCC[C@H](NC(=O)[C@H](CC(C)C)NC(=O)[C@@H](NC(=O)[C@H](CCCCN)NC(=O)[C@@H](NC(=O)[C@H](CCCNC(=N)N)NC(=O)[C@H](CCCCN)NC(=O)[C@H](CC(C)C)NC(=O)[C@H](CCCCCC)NC(=O)CN)[C@@H](C)CC)[C@@H](C)O)C(N)=O (H-G[Aoc(2)]LKRIKTL[Aoc(2)]-NH2) | 71 µM |
| 12.5 µM | CC[C@H](C)[C@H](NC(=O)[C@H](CCCNC(=N)N)NC(=O)[C@H](CCCCN)NC(=O)[C@H](CC(C)C)NC(=O)[C@H](CC1CCCCC1)NC(=O)CN)C(=O)N[C@@H](CCCCN)C(=O)N[C@H](C(=O)N[C@@H](CC1CCCCC1)C(=O)N[C@@H](CC(C)C)C(N)=O)[C@@H](C)O (H-G[Cha]LKRIKT[Cha]L-NH2) | 120 µM |

Source: ChEMBL document CHEMBL5608163, “Structure modification of anoplin for fighting resistant bacteria” (Eur J Med Chem, 2024)
